According to patent publication US20220152100A1, “METHODS FOR CONTROLLED ACTIVATION OR ELIMINATION OF THERAPEUTIC CELLS” (Bellicum Pharmaceuticals, Inc., priority 2014, published 2022):

Columns and labels:
[1] = tested on: 293 cells; assay: SEAP assay: FRBl2-tagged CAR plus iCaspase-9, two-tiered apoptosis; type: cell-based, human; conditions: iCaspase-9, overnight
Excerpt: FIGS. 6A and 6B provide the results of an assay of two-tiered activation of apoptosis.
As a proof of principal, two tandem FRBl domains were fused to either a 1st generation Her2-CAR or to a 1st generation CD19-CAR co-expressing inducible Caspase-9. 293 cells were transiently transfected with a constitutive reporter plasmid, SRα-SEAP, along with normalized levels of expression plasmids encoding Her2-CAR-FRBl2, iCaspase-9, Her2-CAR-FRBl2+iCasp9, iC9-CAR(19).FRBl2 (coexpressing both CD19-CAR-FRBl2 and iCaspase9), or control vector. […] After overnight incubation with drugs, SEAP activity was determined. […] This dose-dependent decrease required the presence of both the FRB-tagged CAR and the FKBP-tagged Caspase-9. […] Moreover, on- or off-target-mediated CAR clustering should increase the sensitivity of killing primarily at the site of scFv engagement.

[2] = tested on: 293 cells; assay: SEAP assay: iMC.FRBL / iMC.FRBL2 plus Caspase-9; type: cell-based, human; conditions: Caspase-9 with iMC.FRBL or iMC.FRBL2 and anti-HER2 CAR
Method: HEK-293 cells were transfected with 1 μg of SRα-SEAP constitutive reporter plasmid along with either negative (Neg) control, eGFP (pBP0047), CaspaCIDe (iC9/pBP0044) alone, or CaspaCIDe along with iMC.FRBL (pBP0655)+anti-HER2.CAR.Fpk2 (pBP0488) or iMC.FRBL2 (pBP0498)+anti-HER2.CAR.Fpk2. Cells were then plated with half-log dilutions of rimiducid or rapamycin and assayed for SEAP as previously described. Diminution of SEAP activity correlates with cell elimination. Schematic represents one possible rapamycin-mediated complex of signaling domains, which lead to Caspase-9 clustering and apoptosis.
To determine if multimers of FRB would still act as a recruitment scaffold to enable rapalog-mediated Caspase-9 dimerization when attached to another signaling domain, 1 or 2 FRBL domains were fused to the potent chimeric stimulatory molecule, MyD88/CD40, to derive iMC.FRBL (pBP0655) and iMC.FRBL2 (pBP0498), respectively (FIG. 9B). As an initial test, 293 cells were transiently transfected with reporter plasmid SRα-SEAP, Caspase-9, a 1st generation anti-HER2 CAR (pBP0488) and (pBP0655 or pBP0498) (FIG. 15). Control transfections contained Caspase-9 (pBP0044) alone or eGFP expression vector (pBP0047). […] Thus, heterodimerizer-mediated activation of Caspase-9 is possible in cells containing multimers of FRBL fused to distinct proteins, such as MyD88/CD40.

[3] = tested on: 293 cells; assay: SEAP assay: iMC (tandem FKBP) plus FRBL2-Caspase-9; type: cell-based, human; conditions: tandem FKBPs (iMC) present
Method: FIGS. 16A and 16B are line graphs showing that tandem FKBP scaffold mediates FRBL2. Caspase activation in the presence of rapalogs. FIG. 16A. HEK-293 cells were transfected with 1 μg each of SRα-SEAP reporter plasmid, Δmyr.iMC.2A-anti-CD19.CAR.CD3 (pBP0608), and FRBL2. Caspase-9 (pBP0467). […] After ON incubation, cell supernatants were assayed for SEAP activity, as previously described. FIG. 16B. Similar to the experiment described in (FIG. 16A), except that cells were transfected with a membrane-localized (myristoylated) iMC.2A-CD19.CAR.CD3ζ (pBP0609), instead of non-myristoylated Amyr.iMC.2A-CD19.CAR.CD3ζ (pBP0608).
In a second test for rapalog-mediated scaffold-based activation of Caspase-9, 293 cells were transiently transfected with SRα-SEAP reporter plasmid, plus myristoylated or non-myristoylated inducible iMC co-expressed with 1st generation anti-CD19 CAR, plus FRBL2-fused Caspase-9 (plasmid pBP0467) (FIG. 16). […] Thus, rapamcyin and analogs can activate Caspase-9 via a molecular scaffold comprised of FRB or FKBP12 domains.

[4] = tested on: 293T cells; assay: SeAP reporter assay: FRBL-Caspase9 plus FKBPv12-Caspase9 heterodimerization; type: cell-based, human
Method: HEK 293T cells (5×10^5) were seeded on a 100-mm tissue culture dish in 10 mL DMEM4500, supplemented with glutamine, penicillin/streptomycin and 10% fetal calf serum. After 16-30 hours incubation, cells were transfected using Novagen's GeneJuice® protocol. Briefly, for each transfection, 0.5 mL OptiMEM was pipeted into a 1.5-mL microcentrifuge tube and 15 μL GeneJuice reagent added followed by 5 sec. vortexing. Samples were rested 5 minutes to settle the GeneJuice suspension. DNA (5 μg total) was added to each tube and mixed by pipetting up and down four times. Samples were allowed to rest for 5 minutes for GeneJuice-DNA complex formation and the suspension added dropwise to one dish of 293T cells. A typical transfection contains 1 μg SRα-SEAP (pBP0046) (3), 2 μg FRB-Caspase-9 (pBP0463) and 2 μg FKBPv12-Caspase-9 (pBP0044) (7).
24 hours following transfection (4.1), 293T cells were split to 96-well plates and incubated with dilutions of dimerizing drugs. Briefly, 100 μL media was added to each well of a 96-well flat-bottom plate. Drugs were diluted in tubes to a concentration 4× the top concentration in the gradient to be place on the plate. […] 100 μL from each drug-containing well was then transferred to the adjacent well and the cycle repeated 10 times to produce a serial two-fold step gradient. The last wells were untreated and serve as a control for basal reporter activity. […]
24 hours after drug stimulation, 96-well plates were wrapped to prevent evaporation and incubated at 65®C for 2 hours to inactivate endogenous and serum phosphatases while the heat-stable SeAP reporter remains (1, 4, 12). […] Phosphatase activity was measured by fluorescence with excitation at 355 nm and emission at 460 nm. […]
FIG. 37—Drug induced programmed cell death by homodimerization or heterodimerization of tagged caspase 9. […] Reporter activity is expressed as a percentage of the average of 8 control wells containing no drug. […]
FIG. 38—Rapalog-induced cell death switch. […] Reporter activity is expressed as a percentage of the average of 8 wells containing no drug. […]

[5] = tested on: CD3+ΔCD19+ cells; assay: CASPALLO phase 1 clinical trial: AP1903 in patients with GvHD after iCasp9+ T cells; conditions: within 24 hours

SMILES: CC[C@H](C(=O)N1CCCC[C@H]1C(=O)O[C@H](CCc1ccc(OC)c(OC)c1)c1cccc(OCC(=O)NCCNC(=O)COc2cccc([C@@H](CCc3ccc(OC)c(OC)c3)OC(=O)[C@@H]3CCCCN3C(=O)[C@@H](CC)c3cc(OC)c(OC)c(OC)c3)c2)c1)c1cc(OC)c(OC)c(OC)c1 (relative stereo) [AP1903, 2-Piperidinecarboxylic acid, 1-[(2S)-1-oxo-2-(3,4,5-trimethoxyphenyl)butyl]-, 1,2-ethanedilbis[imino(2-oxo-2,1-ethanediyl)oxy-3,1-phenyleneR1R)-3-(3,4-dimethoxyphenyl)propylidene]] ester, [2S-[1(R*),2R*[S*[S*[1(R*),2R*]]]]]-(9CI)]
- SEAP activity, of normal levels [1]: about 20%
- SEAP reduction / cell killing [2]: killed by Caspase-9 homodimerization
- activation of FRBL2-Caspase-9 [3]: not activated
- cell death (loss of SeAP reporter) ([4]; FKBPv12-Caspase-9 with control vector or FRB without caspase fusion): effectively permitted homodimerization and induction of Caspase-9
- cell death (loss of SeAP reporter) ([4]; FRBL-Caspase9 plus FKBPv12-Caspase9): dose-dependent homodimerization of only FKBP12-Caspase9, leading to dimerization and activation of apoptosis
- further reduction of CD3+ΔCD19+ cells [5]: further log reduction
